Patent US20110021765A1, “FLUORINATED LANTHANIDE PROBES FOR 19F MAGNETIC RESONANCE APPLICATIONS” (priority 2007, published 2011)
Several values for one entry are separate records, joined by “and”; a condition that tells them apart may be missing. Equal entries are not always repeated.

Experiments:
Type in all cases: physicochemical
[1] = 19F NMR chemical shifts and longitudinal relaxation rates at 188 MHz (4.7 T, 298K); conditions: for Longitudinal relaxation rate R1 ortho CF3 group / Longitudinal relaxation rate R1 other CF3 group / Limiting 19F chemical shift δF ortho CF3 group / Limiting 19F chemical shift δF other CF3 group if present: 188 MHz; for Limiting 19F chemical shift δF ortho CF3 group / Limiting 19F chemical shift δF other CF3 group if present: pH 5.5, referred to NaCF3CO2 δF −76.1 ppm
Procedure: ^19F NMR chemical shifts and longitudinal relaxation rates for various lanthanide complexes of L^1, L^2 and L^3 were measured at 188 MHz (4.7 T, 298K).

[2] = 19F NMR pH titration, acid-base equilibrium fit; conditions: ratio of integrated 19F intensities −59/−53 and −65/−64 ppm
Source text: Solid lines: least-squares fits to the fast-exchange acid-base equilibrium equation for the chemical shift.
Solid lines: least-squares fits to the slow-exchange acid-base equilibrium equation for the NMR line intensity.
The NH group of [Ln.L^4] deprotonates in alkaline conditions, causing the CF3 group of [Ho.L^4] to shift from −55.1 ppm to −36.8 ppm under basic conditions (see FIG. 3). Because the acid-base equilibrium is fast in this system ([…] lanthanide re-coordination involved), only one signal is observed, with the chemical shift corresponding to the weighted average of the chemical shifts of the individual forms.
The higher pKa values in biofluids are the result of additional stabilization of the acidic form by carbonate coordination (see FIG. 4) (S. Aime, A. Barge, M. Botta, J. A. K. Howard, R. Kataky, M. P. Lowe, J. M. Moloney, D. Parker and A. S. de Sousa, Chem. Commun., 1999, 1047); (Y. Bretonniere, M. J. Cann, D. Parker and R. J. Slater, Org. Biomol. Chem., 2004, 2, 1624). The basic form exists as a mixture of two diastereomers, defined by the R or S configuration at the sulphur atom (Scheme 3). The experimental ratio is 6:1 (298 K, pH=8), resonating at −98 and −112 ppm respectively. […]

[3] = Eu luminescence emission intensity ratio versus pH; conditions: 298K, H2O, 0.1 M NaCl
[4] = Comparative 19F NMR signal intensity of paramagnetic complexes versus diamagnetic [YL^1]; conditions: 188 MHz (4.7 T), 298K
Procedure: A comparative analysis examined the ortho-CF3 resonance in ^19F NMR spectra of the diamagnetic Y complex, [YL^1] (R1 0.93 s^−1, {linewidth, ω1/2=2 Hz}) and the terbium (R1 90 s^−1 {.ω1/2 90 Hz} and Dy (R1 77 s^−1 {.ω1/2 35 Hz}) analogues. Using a relaxation delay of 3 times T1, ^19F spectra were acquired over a common time interval of 30 minutes (2 mM complex, 188 MHz (4.7 T), 298K, typical S/N ratio per mM was 100:1). The relative signal intensity ratios per mM of complex (peak height times peak width at half height; processing used a line-broadening function equal to half of the observed linewidth, for the given complex resonance) for observation of the major ortho-CF3 resonance in [TmL^1], [DyL^1] and [TbL^1] versus the diamagnetic analogue, [YL^1], were 52:1 22:1 and 41:1 respectively. This is consistent with the ability to increase the number of scans acquired for the faster relaxing CF3 resonance in the paramagnetic complexes.

[5] = N-protonated complex, pH 5.5, 188 MHz

| Structure (SMILES) | Longitudinal relaxation rate R1 ortho CF3 group ([1]; pH 5.5) | Longitudinal relaxation rate R1 other CF3 group ([1]; pH 5.5) [s⁻¹] | Limiting 19F chemical shift δF ortho CF3 group [1] [ppm] | Limiting 19F chemical shift δF other CF3 group if present [1] [ppm] | R1 ortho CF3 group, N-protonated complex (value in parentheses) [1, 5] [s⁻¹] | R1 other CF3 group, N-protonated complex (value in parentheses) [1, 5] [s⁻¹] | δF ortho CF3 group, N-protonated complex (value in parentheses) [1, 5] [ppm] | δF other CF3 group, N-protonated complex (value in parentheses) [1, 5] [ppm] | Complex protonation constant pKMLH [2] | Apparent protonation constant from Eu emission band intensity ratio [3] | Linewidth ω1/2 of ortho-CF3 resonance [4] [Hz] | Longitudinal relaxation rate R1 ortho CF3 group ([1]; pH 5.5, listed as yttrium (III) complex of ligand L^1) [s⁻¹] |
| --- | --- | --- | --- | --- | --- | --- | --- | --- | --- | --- | --- | --- |
| O=C([O-])CN1CCN(CC[N-]S(=O)(=O)c2cc(C(F)(F)F)ccc2C(F)(F)F)CCN(CC(=O)[O-])CCN(CC(=O)[O-])CC1.[Eu+3] [[EuL^2]^−] | 2.5 s⁻¹ | 1.5 | −53 | −65 | 2.2 | 1.2 | −59 | −64 | 5.5 (±0.05) | 5.5 | – | – |
| O=C([O-])CN1CCN(CC[N-]S(=O)(=O)c2cc(C(F)(F)F)ccc2C(F)(F)F)CCN(CC(=O)[O-])CCN(CC(=O)[O-])CC1.[Tb+3] [[TbL^2]^−] | 71 s⁻¹ | 23 | −159 | −45 | – | – | −59 | −64 | – | – | – | – |
| O=C([O-])CN1CCN(CC(=O)[O-])CCN(CC(=O)Nc2ccc(C(F)(F)F)cc2C(F)(F)F)CCN(CC(=O)[O-])CC1.[Tm+3] [[TmL^1]] | 16 s⁻¹ | 5.6 | −79.6 | −55 | – | – | – | – | – | – | – | – |
| O=C([O-])CN1CCN(CC(=O)[O-])CCN(CC(=O)Nc2ccc(C(F)(F)F)cc2C(F)(F)F)CCN(CC(=O)[O-])CC1.[Y+3] [[YL^1]] | 0.93 s⁻¹ and 0.9 s⁻¹ | ~0.9 | −61.3 | −63.1 | – | – | – | – | – | – | 2 | ~0.9 |
| O=C([O-])CN1CCN(CC(=O)[O-])CCN(CC(=O)Nc2ccc(C(F)(F)F)cc2C(F)(F)F)CCN(CC(=O)[O-])CC1.[Yb+3] [[YbL^1]] | 4.6 s⁻¹ | 1.7 | −65.4 | −59.6 | – | – | – | – | – | – | – | – |
